Experimental data reported in patent US7740882B2, “Enhanced oral and transcompartmental delivery of therapeutic or diagnostic agents” (priority 2001, dated 2010).
“Also recorded” adds a separate entry of the source. Read-outs that look alike come from different tables or passages of the source. Non-standard residues stand in square brackets, D forms with d.

What was measured:
[1] = biological target: T1, human sodium dependent multivitamin transporter, hSMVT (Homo sapiens, UniProt Q9Y289); assay: Uptake in CHO cells transiently transfected with hSMVT (CHO/hSMVT); conditions: not concentration dependent controls
T1 sequence (Q9Y289 1-635): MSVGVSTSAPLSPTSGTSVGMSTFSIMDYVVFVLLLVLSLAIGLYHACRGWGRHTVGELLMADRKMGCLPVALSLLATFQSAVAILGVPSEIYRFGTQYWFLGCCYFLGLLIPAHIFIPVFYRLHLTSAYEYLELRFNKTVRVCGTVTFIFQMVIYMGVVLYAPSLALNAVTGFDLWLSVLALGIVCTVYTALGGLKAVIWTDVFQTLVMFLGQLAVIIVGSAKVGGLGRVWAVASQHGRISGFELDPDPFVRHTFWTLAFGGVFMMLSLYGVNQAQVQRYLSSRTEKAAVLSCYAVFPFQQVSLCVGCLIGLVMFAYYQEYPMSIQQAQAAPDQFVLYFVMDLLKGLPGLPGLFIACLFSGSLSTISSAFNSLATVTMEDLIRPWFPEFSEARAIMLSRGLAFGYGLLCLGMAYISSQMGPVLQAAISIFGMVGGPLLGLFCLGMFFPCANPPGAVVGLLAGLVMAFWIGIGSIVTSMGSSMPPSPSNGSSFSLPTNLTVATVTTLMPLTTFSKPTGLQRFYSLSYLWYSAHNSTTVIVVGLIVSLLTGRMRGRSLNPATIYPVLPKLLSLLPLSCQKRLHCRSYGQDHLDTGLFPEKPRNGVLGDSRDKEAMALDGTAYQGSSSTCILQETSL
Procedure: (§1) CHO Cell Uptake Studies CHO cells transiently transfected with hSMVT (CHO/hSMVT) were washed twice with 25 mM uptake buffer, containing 25 mM Hepes/Tris pH 7.5, 140 mM NaCl, 5.4 mM KCl, 1.8 CaCl2, 0.8 mM MgSO4 and 5 mM glucose, approximately 48 hours post-transfection. Subsequently, the cells were incubated with the permeant at 37° C. for 10 minutes. Uptake was stopped by washing the cells thrice with ice-cold buffer. Non-specific uptake was measured in parallel experiments with the control pSPORT vector-transfected CHO cells. Finally, the cells were solubilized by 0.1% v/v Triton X-100, and 0.6 ml was used for scintillation counting. From the remaining volume, 10 μl of solution was taken from each well and protein concentration was determined using the Bio-Rad reagent according to the Bradford technique [M. Bradford, A rapid and sensitive method of quantitation of microgram quantities of protein utilizing the principle of protein-dye binding, Anal. Biochem. 72 (1976) 248]. Bovine serum albumin was used as the standard.
Parallel uptake experiments were performed using CHO/pSPORT control cells.
as §1, with “hSMVT” for “hSMVT (CHO/hSMVT)”, “glucose.” for “glucose, approximately 48 hours post-transfection.”, “Washing” for “Uptake was stopped by washing”, “three times” for “thrice”, “buffer stopped drug uptake.” for “buffer.”, “manufacturer's instructions.” for “Bradford technique [M. Bradford, A rapid and sensitive method of quantitation of microgram quantities of protein utilizing the principle of protein-dye binding, Anal. Biochem. 72 (1976) 248].”
as §1, with “Studies.” for “Studies”, “glucose.” for “glucose, approximately 48 hours post-transfection.”, “manufacturer's instructions.” for “Bradford technique [M. Bradford, A rapid and sensitive method of quantitation of microgram quantities of protein utilizing the principle of protein-dye binding, Anal. Biochem. 72 (1976) 248].”

CHO/pSPORT cells = assay: Non-specific uptake in vector-transfected control CHO/pSPORT cells
Procedure: as §1, with “From the remaining volume, 10 μl of solution was taken from each well and protein concentration was determined using the Bio-Rad reagent according to the Bradford technique [M. Bradford, A rapid and sensitive method of quantitation of microgram quantities of protein utilizing the principle of protein-dye binding, Anal. Biochem. 72 (1976) 248].” left out
CHO Cell Uptake Studies CHO cells transiently transfected with hSMVT were washed twice with 25 mM uptake buffer, containing 25 mM Hepes/Tris pH 7.5, 140 mM NaCl, 5.4 mM KCl, 1.8 CaCl2, 0.8 mM MgSO4 and 5 mM glucose. […] Non-specific uptake was measured in parallel experiments with the control pSPORT vector-transfected CHO cells. […] From the remaining volume, 10 μl of solution was taken from each well and protein concentration was determined using the Bio-Rad reagent according to the manufacturer's instructions. […]
CHO Cell Uptake Studies. […] Non-specific uptake was measured in parallel experiments with the control pSPORT vector-transfected CHO cells. […]

[2] = tested on: bovine brain microvessel endothelial cells (BBMECs); assay: Transport (permeability) across BBMEC monolayers, in vitro BBB model
Procedure: Non-biotinylated PEGs were used in the control studies.
Isolation and culture of BBMECs. Bovine Brain Microvessel Endothelial Cells (BBMECs) were used as an in vitro model of BBB. BBMECs were isolated from bovine brain by a two-step enzymatic method and the cells were cultured on collagen coated Transwell™ plates or polystyrene plates in an atmosphere of 95% air and 5% CO2 at 37° C. Transendothelial electrical resistance (TEER) and several molecular markers were used to validate the integrity of the cell culture system.
The cells were cultured on 12-well Transwell™ filters for 7-8 days and transport was evaluated. […] All studies were performed at 37° C.

[3] = tested on: differentiated HL-60 cells; assay: Intracellular calcium assay (45Ca release from intracellular stores); format: cell-based, human; conditions: differentiated HL-60 cells, calcium release; read-out: Cell Activation EC50
Procedure: Intracellular Calcium Assay. HL-60 cells (2×10^5 cells/mL) were grown in the presence of 1.3% DMSO for 5 days. For each time course experiment, 2×10^6 cells were resuspended in 5 mL of HBSS containing 2 mCi/mL of ^45CaCl2 as the sole source of calcium. After 90 min incubation at 37° C., cells were washed twice as above with cold HBSS. […] Cell pellets were treated with 0.5% Triton X-100/0.1 M NaOH and centrifuged in tubes containing 0.3 mL of 10% sucrose and radioactivity associated with the pellets was measured; this represents vesicle-associated ^45Ca. The top portion of the tube, which contained the cytoplasmic ^45Ca was also measured.

[4] = biological target: T2, fMLF receptor on differentiated HL-60 cells (Homo sapiens, UniProt P21462); assay: Competitive receptor binding assay with fML[3H]F
T2 construct: endogenous in cells; host or cells: HL-60 cells differentiated with 1.3% DMSO for 48 h; whole cells
T2 sequence (P21462 1-350): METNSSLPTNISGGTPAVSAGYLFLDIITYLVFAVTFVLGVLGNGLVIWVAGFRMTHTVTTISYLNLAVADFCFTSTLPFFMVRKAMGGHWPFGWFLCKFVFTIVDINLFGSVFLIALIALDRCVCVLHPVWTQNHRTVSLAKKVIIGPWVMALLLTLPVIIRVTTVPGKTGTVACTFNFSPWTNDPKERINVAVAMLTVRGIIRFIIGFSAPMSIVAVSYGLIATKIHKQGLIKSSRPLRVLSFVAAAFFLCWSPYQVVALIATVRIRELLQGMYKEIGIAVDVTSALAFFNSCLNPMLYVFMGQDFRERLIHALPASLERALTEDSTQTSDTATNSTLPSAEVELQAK
Procedure: Competitive Receptor Binding Assay. HL-60 cells were propagated in RPMI 1640 supplemented with 2 mM L-glutamine and 10% (v/v) heat-inactivated fetal bovine serum, and were subcultured every 3 days at a ratio of 1:4. Cells were grown at 37° C. in an atmosphere of 5% CO2. Dimethyl sulfoxide (DMSO, 1.3%) was added to the culture (3×10^5 cells/mL) 48 h before the binding assay to initiate cellular differentiation. […] The cells were incubated for 15 min at 37° C. with gentle shaking. They were collected by centrifugation at 3,000 g for 5 min at room temperature. The supernatant was removed and cells were resuspended in 0.1 mL of binding buffer and carefully added to the very top of tubes (Denville Scientific, South Plainfield, N.J., catalog #C19002) that contained 0.3 mL of 10% sucrose. They were centrifuged for 5 min. The cells settled to the bottom and any unbound ligand remained in the middle of the tube. The tubes were placed in dry ice for 5 min, and then their bottoms were cut off to collect the cells. Cell-bound and free radioactivity were determined by liquid scintillation counting.

Jurkat T-cells = assay: Uptake of DIG conjugates by Jurkat cells (DIG ELISA); format: cell-based, human; conditions: 333 nM, 30 min
Procedure: (§2) Uptake by HL-60, Jurkat and Peritoneal Cells. Human Jurkat T-cell growth conditions were the same as for HL-60 cells, except that the subcultivation ratio was 1:3. Jurkat cells (2×10^5) or fully differentiated HL-60 cells were washed twice with PBS and incubated in binding buffer (see above) with conjugate for 30 min at 37° C. Each conjugate (1 μg, dissolved at a concentration of 333 nM) was used in these experiments. Cells were lysed, the membranes and cell debris were removed by centrifugation (5 min. at 14,000×g) and the enzyme-linked immunosorbent assay (ELISA) for DIG was performed on the supernatant as described below. In order to study primary peritoneal cells, BALB/c mice were injected in the peritoneal cavity with 5 μg of PEG/A-DIG4-fMLF4 (n=3 mice), or PEG/A-DIG4 (n=4 mice). After 1 h, the cavity was flushed with medium and cells were collected and washed twice with cold PBS, as described above.
(§3) Cells were resuspended in 100 μL of PBS, containing 0.6% Tween 20, vortexed briefly and kept on ice for 30 min. […] Uptake of DIG was determined by ELISA of the supernatant. […] DIG content was proportional to the difference in absorbance at 495 nm and 450 nm. […] In order to account for the potential different amounts of peritoneal cells from each mouse, the results were normalized to the amount of protein, as measured with the Bradford assay (BioRad, Hercules Calif.).

[5] = tested on: differentiated HL-60 cells; assay: Uptake of DIG conjugates by differentiated HL-60 cells (DIG ELISA); format: cell-based, human; conditions: 333 nM, 30 min, 37° C.
Procedure: as §2, §3

[6] = tested on: peritoneal cells (macrophages); assay: Uptake by peritoneal cells after intraperitoneal injection (DIG ELISA); format: in vivo, BALB/c mice
Procedure: as §2, §3

superoxide production = conditions: literature value; read-out: EC50 for superoxide production (Klinker et al., 1996); cited from earlier work
SMVT [7] = biological target: T3, SMVT (Homo sapiens, UniProt Q9Y289); conditions: read-out: Ki, competitive inhibition of biotin-PEG-3400 transport; Caco-2, inhibitors at 10 and 20 μM
T3 sequence (Q9Y289 1-635): T1 sequence (Q9Y289 1-635)
Description: Data Analysis. The Michaelis-Menten kinetic parameters for the Caco-2 cell monolayer transport studies were estimated by performing weighted non-linear regression with Scientist software (MicroMath, Utah) using the following equation: Pe=Pm+Pc/(1+C/Km), where Pe is the effective permeability of the substrate transported, C is the substrate concentration and Pm and Pc represent the passive and carrier-mediated component of the permeability. The data from inhibition studies were transformed into Lineweaver-Burke plots to determine the nature of the inhibition process (competitive, non-competitive). […] Data used for the above plots were weighted using 1/S.E.M.^2. The kinetic parameters for CHO cell studies were estimated by performing non-linear regression using the equation J=Jmax*[C]/(Km+[C]), where J is the rate of permeant uptake, Jmax is the maximal uptake velocity and [C] is the substrate concentration. Data were weighted using 1/S.E.M.^2. Statistical analyses were performed using Jandel SigmaStat, version 2.03. One-way analysis of variance was used to test the difference in the mean values of uptake using p<0.05 as the significance level for all tests.

SMVT [8] = biological target: T3, SMVT; assay: Inhibition of substrate uptake in CHO/hSMVT cells by 50 μM SMVT substrates; format: in vitro ADME; parameters: expressed in transfected cells; host or cells: CHO cells (ATCC), transient Lipofectamine transfection; plasmid was a gift of Dr. Puttur D. Prasad
SMVT [9] = biological target: T3, SMVT; conditions: read-out: Ki, competitive inhibition of RI-K(biotin)-Tat9 transport; Caco-2, inhibitors at 10 and 20 μM
Description: [formula] where Pe is the effective permeability of the substrate transported, Cs is the substrate concentration and Pm and Pc represent the passive and carrier-mediated component of the permeability. All data were initially fitted to a 3-parameter model (Pc, Pm, Km for Caco-2 studies, Jmax, Pm, Km for CHO studies). […] The data from inhibition studies were transformed into Lineweaver-Burke plots to determine the nature of the inhibition process (competitive, non-competitive). Subsequently, the inhibition constant (Ki) values were estimated using Dixon plots. Data used for the above plots were weighted using 1/SEM^2 (S.E.M=Standard Error of Mean). The kinetic parameters for CHO cell studies were estimated by performing non-linear regression using the equation J=Jmax*[C]/(Km+[C])+Pm*C, where J is the rate of permeant uptake, Pm is the passive uptake component and [C] is the substrate concentration. Data were weighted using 1/S.E.M^2.

Procedure for Caco-2 cell monolayers: Caco-2 Cell Transport Studies An Ussing-type diffusion chamber system (Harvard Apparatus, Natick, Mass.) was used to perform transport studies. The apical solution was a MES Ringer's buffer (pH 6.5) consisting of 114.0 mM NaCl, 5.0 mM KCl, 1.1 mM MgSO4, 1.25 mM CaSO4, and 15 mM 2-(N-morpholino)ethanesulfonic acid (MES). The basolateral solution was a Ringer's buffer (pH 7.4) consisting of 114.0 mM NaCl, 5.0 mM KCl, 1.65 mM Na2HPO4, 0.3 mM NaH2PO4, 25 mM NaHCO3, 1.1 mM MgSO4, and 1.25 mM CaSO4. Both buffers contained 25 mM glucose and were adjusted to 290 mOsm/kg using a vapor pressure osmometer (Wescor Inc, Logan, Utah). For transport experiments using filters with cell monolayers, the inserts were rinsed with Ringer's buffet containing 25 mM glucose three times over a 20 min period at room temperature. The TEER was measured for each monolayer before it was mounted onto the diffusion chamber, which was pre-warmed to 37° C. by placement on the heating blocks. The volume of each half-chamber was 5 ml and the surface area of the Snapwell™ filters available for drug transport was 1 cm^2. […] The donor solution consisted of radiolabeled permeant in the apical buffer [apical (AP) to basolateral (BL) study]. Starting at 30 min, samples were taken from the receptor chamber every 15 min until the end of the experiment (105 min). A minimum of three monolayers was used to determine the permeability of test compound in each study and sample analysis was performed using scintillation counting (Perkin Elmer, Gaithersburg, Md.).
The Michaelis-Menten kinetic parameters of Caco-2 and CHO cell transport were then estimated using non-linear regression.
Prior to experimentation, diffusion chambers mounted with the Snapwells™ containing Caco-2 cells were equilibrated at 5° C., 10° C., 15° C., 25° C. and 37° C.
[formula] where Pe is the effective permeability of the substrate transported, Cs is the substrate concentration and Pm and Pc represent the passive and carrier-mediated component of the permeability. All data were initially fitted to a 3-parameter model (Pc, Pm, Km for Caco-2 studies, Jmax, Pm, Km for CHO studies).
Caco-2 Cell Transport Studies An Ussing-type diffusion chamber system (Harvard Apparatus, Natick, Mass.) was used to perform transport studies. The apical solution was a MES Ringer's buffer (pH 6.5) consisting of 114.0 mM NaCl, 5.0 mM KCl, 1.1 mM MgSO4, 1.25 mM CaSO4, and 15 mM 2-(N-morpholino)ethanesulfonic acid (MES). The basolateral solution was a Ringer's buffer (pH 7.4) consisting of 114.0 mM NaCl, 5.0 mM KCl, 1.65 mM Na2HPO4, 0.3 mM NaH2PO4, 25 mM NaHCO3, 1.1 mM MgSO4, and 1.25 mM CaSO4. Both buffers contained 25 mM glucose and were adjusted to 290 mOsm/kg using a vapor pressure osmometer (Wescor Inc, Logan, Utah). For transport experiments using filters with cell monolayers, the inserts were rinsed with Ringer's buffer containing 25 mM glucose three times over a 20 min period at room temperature. The TEER was measured for each monolayer before it was mounted onto the diffusion chamber, which was pre-warned to 37° C. by placement on the heating blocks.

For PEG-3350 [reference compound], the “absorptive/effective permeability (Pe)” value (Caco-2 cell monolayers) was ~1e-06 cm/s.
With “N-acetyl-D-Lys-D-Arg-D-Arg-D-Arg-D-Gln-D-Arg-D-Arg-D-Lys-D-Lys-D-Arg-NH2 (Ac-[dK][dR][dR][dR][dQ][dR][dR][dK][dK][dR]-NH2; SMILES CC(=O)N[C@H](CCCCN)C(=O)N[C@H](CCCNC(=N)N)C(=O)N[C@H](CCCNC(=N)N)C(=O)N[C@H](CCCNC(=N)N)C(=O)N[C@H](CCC(N)=O)C(=O)N[C@H](CCCNC(=N)N)C(=O)N[C@H](CCCNC(=N)N)C(=O)N[C@H](CCCCN)C(=O)N[C@H](CCCCN)C(=O)N[C@H](CCCNC(=N)N)C(N)=O) [RI-K-Tat9]” the “uptake in CHO/hSMVT cells” value [1] was < 1 pmol/mg protein/10 min, the “uptake in CHO/pSPORT cells” value (CHO/pSPORT cells) was < 1 pmol/mg protein/10 min and the “Papp” value [2] was 7.3e-06 cm/s.
With “PEG/A-fMLF4-DIG4: linear PEG-aspartate copolymer bearing four fMLF and four digoxigenin residues” the EC50 [3] was 5.9 nM, the Kd ([4]; Kd multiplied by average number of fMLF moieties, read-out: Relative Avidity Kd/fMLP) was 4.8 nM and the Kd ([4]; differentiated HL-60 cells, competition with fML[3H]F, read-out: Avidity Kd) was 1.2 nM. For the same compound, the “Avidity Activation EC50/Kd” value ([4]; ratio of EC50 (calcium) to Kd) was 4.92, the conjugate accumulated (Jurkat T-cells) was 1.3% and the “conjugate bound and/or internalized” value [5] was 18%. For the same compound, the “administered conjugate taken up by peritoneal cells” value ([6]; BALB/c mice, 5 μg i.p., 1 h) was 17% and the “DIG accumulation, fold over non-targeted conjugate PEG/A-DIG8” value ([6]; non-activated peritoneal cells) was ~5 fold.
For `CSCC[C@H](NC=O)C(=O)N[C@@H](CC(C)C)C(=O)N[C@@H](Cc1ccccc1)C(=O)O` [fMLF, N-formyl-methionine-leucine-phenylalanine], the EC50 (superoxide production) is listed as 15 to 30 nM.
In the case of `N[C@@H](CCCCNC(=O)CCCC[C@@H]1SC[C@@H]2NC(=O)N[C@@H]21)C(=O)O` [biocytin], the Ki (SMVT [7]) is reported as 14 µM, the “inhibition of RI-K(biotin)-Tat9 uptake” value (SMVT [8]; 0.1 μM RI-K(biotin)-Tat9, inhibitor 50 μM) is reported as “significantly inhibited; also recorded: significantly lowered (p<0.001)” and the “inhibition of biotin-PEG-3400 uptake” value (SMVT [8]; 0.1 μM biotin-PEG-3400, inhibitor 50 μM) is reported as “significantly (p<0.01) inhibited”. For the same compound, the “inhibition of PEG:(RI-K(biotin)-Tat9)8 uptake” value (SMVT [8]; 0.1 μM conjugate, inhibitor 50 μM) was “significantly lower (p<0.05)” and the Ki (SMVT [9]) was 3.27 µM.
